What was measured:
[1] = system: Aβ-induced AD (Alzheimer's disease) rats; assay: Spatial probe test in water maze (Day 26); assay type: in vivo, SD rats
From the text: (§1) Therefore, above descriptions have completely introduce the fabricating way for this Alzheimer's disease alleviating and preventing composition. Next, a variety of experimental data will be presented in following paragraphs for proving the practicability of the Alzheimer's disease alleviating and preventing composition. Please refer to FIG. 4, which shoes an experiment grouping table.
(§2) Please continuously refer to FIG. 5, where a daily schedule diagram for the animal experiments are provided.
Next, spatial probe test is completed on Day 26. During the spatial probe test, the rest platform is removed out of the water tank. To carry out the spatial probe test, the test rat is put on the starting point 1 located in quadrant I; and then, letting the rat swim in the water tank for 90 seconds so as to record the rat's swimming route as well as the time for staying in quadrant IV. Please refer to FIG. 8, which provides swimming route records of the test rats as working the spatial navigation test.

[2] = system: Aβ-induced AD (Alzheimer's disease) rats; assay: Working memory test in water maze (Day 27); assay type: in vivo, SD rats; conditions: FIG. 10, compared to Aβ group
From the text: as §1, §2

SMILES: COc1cc2c(cc1OC)C(=O)C(CC1CCN(Cc3ccccc3)CC1)C2 (stereo not drawn) [Donepezil]
- swimming route in spatial probe test ([1]; FIG. 8, compared to Aβ group (non-directional swimming), rest platform removed): directly swim into the quadrant IV
- time spent for searching target quadrant ([1]; FIG. 9, compared to Aβ group, target quadrant IV): the Aβ group spend more time to find the target quadrant
- escape latency, working memory test [2]: the Aβ group spend more time to find the target quadrant

Source: patent US20160331721A1, “COMPOSITION FOR ALLEVIATING AND PREVENTING ALZHEIMER'S DISEASE” (Sunway Biotech Co., LTD, priority 2015, published 2016)
